The subject of one assay is BC1. Description: Cytotoxicity against human BC1 cells. In kind it is functional, cell-based.
The subject of another assay is Lu1. Kind of assay: Cytotoxicity against human Lu1 cells. It is filed as functional, cell-based.
Another assay has as its system KBVIN. Kind of assay: Cytotoxicity against human KBVIN cells in presence of vinblastine. In kind it is functional, cell-based.
Another assay concerns SK-N-SH. Description: Cytotoxicity against human SK-N-SH cells […]. In kind it is functional, cell-based.
The target in assay [1] is Human immunodeficiency virus type 1 reverse transcriptase (Human immunodeficiency virus 1) (UniProt Q72547). Kind of assay: Inhibition of HIV1 reverse transcriptase.
In the next assay the test system is Pseudomonas aeruginosa. Description: Antimicrobial activity against Pseudomonas aeruginosa ATCC 9027 by paper-disk diffusion method. In kind it is functional. In general terms: In agar diffusion tests the substance spreads into inoculated agar from a disc or well.
In another assay the test system is Streptococcus. Kind of assay: Antimicrobial activity against beta-hemolytic Streptococcus isolate 48 by paper-disk diffusion method. In kind it is functional.

As a reminder, the MIC is the smallest concentration in the dilution series that meets the test's criterion for growth inhibition. Read a low MIC as inhibition by little substance.

≈ marks a conversion by molar mass, not a printed value. Calls of active or inactive are those of the source.

Consider `O=C1C=C(c2ccc(O)cc2O[C@@H]2O[C@H](CO)[C@@H](O)[C@H](O)[C@H]2O)O[C@@H]1Cc1ccc(O)cc1` [SPINONIN], for which the outcome (with BC1; in the assay on Lu1; with KBVIN; with SK-N-SH; in assay [1]) was inactive. Further, the MIC against Pseudomonas aeruginosa amounted to 200 µg/mL (≈ 434 µM).
Take `COc1ccc2c(c1)O[C@H]1c3ccc(O[C@@H]4O[C@H](CO)[C@@H](O)[C@H](O)[C@H]4O)cc3OC[C@@H]21`: in the assay on Pseudomonas aeruginosa, 200 µg/mL (≈ 463 µM) was the least that counted as inhibitory (MIC).
For `COc1ccc(-c2coc3cc(O[C@@H]4O[C@H](CO)[C@@H](O)[C@H](O)[C@H]4O)ccc3c2=O)cc1` [ONONIN], the lowest concentration to inhibit growth in the assay with Streptococcus (MIC) was 25 µg/mL (≈ 58.1 µM).

The record behind these values is ChEMBL document CHEMBL1145701, “Spinonin, a novel glycoside from Ononis spinosa subsp. leiosperma” (1997).
